The record followed here is US11458114B2, “Methods and compositions for enhancing synthesis secretion and transport of collagen to increase wound strength” (NORTH CELL PHARMACEUTICALS, INC., priority 2020, dated 2022).

Like-named read-outs stand apart in the source and are kept apart here.

In data set [1] the test system is non-cancerous cells. Nature of the data set: Viable non-cancerous cells after incubation with anticancer drugs in various media. More on the design: Percentage of viable cells, Drugs in commercial formula with SRF: concentration or dose not given beside the values. It is filed as cell-based.
In data set [2] the test system is wounds. Nature of the data set: Various drugs administered on wounds with or without sodium pyruvate or SRF: erythema rating and days to total re-epithelization. The conditions noted are these: for Drug in commercial formula with SRF. Days to healing / Drug in commercial formula with sodium pyruvate only. Days to healing / Drug in commercial formula Days to healing: days to total re-epithelization. The protocol:
All previous studies using pyruvate to treat wounds or be used as an antioxidant used only the sodium salt form of pyruvic acid. The drug products that were tested in previous studies used 1-3% sodium pyruvate and other sodium salts of alpha keto acids by weight 1-3% concentrations in the lotions and triple antibiotic formulations. […]

Where [3] appears, read: Rating 1-10, 1 most erythema, 10 no erythema.
Where [4] appears, read: Rating 1-10, 1 most erythema, 10 no erythema, drug alone.

`N.N.O=C([O-])C1(C(=O)[O-])CCC1.[Pt+2]` [Carboplatin]: in data set [1], the “Percentage of viable cells, Drugs in commercial formula” value stood at 50%; the “Percentage of viable cells, Drugs in commercial formula sodium pyruvate without SRF” value stood at 56%; the “Percentage of viable cells, Drugs in commercial formula with SRF” value is given as 87%. For the same compound, the “Percentage of viable cells after incubation with drugs” value (“Percentage … with drugs” for short) in data set [1] (drug) was 42%. For the same compound, in data set [1] (repeat study), the “Percentage of viable cells, Drugs in commercial formula with SRF repeat study” value (from here on “Percentage … with SRF repeat study”) is reported as 97%.
Turning to `Clc1ccccc1C(c1ccccc1)(c1ccccc1)n1ccnc1` [Chlotrimizole], in data set [2], the “Drug in commercial formula with SRF. Days to healing” value (“Drug … with SRF. Days to healing” for short) was found to be 11 days and the “Drug in commercial formula with sodium pyruvate only. Days to healing” value is given as 15 days. For the same compound, in data set [2] (drug alone), the “Drug in commercial formula Days to healing” value is on record as 22 days. In data set [2] (in vivo), the “Drugs in commercial formula erythema” value came out at 4, the “Drugs in commercial formula with SRF erythema” value (shortened to “Drugs … with SRF erythema”) came out at 8 and the “Drugs in commercial formula with sodium pyruvate only erythema” value (“Drugs … with sodium pyruvate only erythema” for short) was 6.
In the case of `CC(=O)OCC(CCn1cnc2cnc(N)nc21)COC(C)=O` [Famciclovir], in data set [2] (setting [3]), the “Drugs … with SRF erythema” value is reported as 7 and the “Drugs … with sodium pyruvate only erythema” value was 6. Moreover, the “Drugs in commercial formula erythema” value in data set [2] (setting [4]) is 5. Moreover, in data set [2], the “Drug … with SRF. Days to healing” value stood at 12 days and the “Drug in commercial formula with sodium pyruvate only. Days to healing” value was found to be 14 days. In addition, the “Drug in commercial formula Days to healing” value in data set [2] (drug alone) turned out to be 17 days.
Turning to `Nc1nc2c(ncn2CCC(CO)CO)c(=O)[nH]1` [Penciclovir], in data set [2] (setting [3]), the “Drugs … with SRF erythema” value is recorded as 8 and the “Drugs … with sodium pyruvate only erythema” value worked out at 7. Further, the “Drugs in commercial formula erythema” value in data set [2] (setting [4]) came to 7. In addition, in data set [2], the “Drug … with SRF. Days to healing” value turned out to be 12 days and the “Drug in commercial formula with sodium pyruvate only. Days to healing” value was found to be 16 days. Moreover, the “Drug in commercial formula Days to healing” value in data set [2] (drug alone) is on record as 17 days.
`CC1=C(/C=C/C(C)=C/C=C/C(C)=C/CO)C(C)(C)CCC1` [Retinol]: in data set [2] (setting [3]), the “Drugs … with SRF erythema” value was determined as 7 and the “Drugs … with sodium pyruvate only erythema” value came out at 3. The “Drugs in commercial formula erythema” value in data set [2] (setting [4]) was determined as 1. Besides, in data set [2], the “Drug … with SRF. Days to healing” value worked out at 9 days and the “Drug in commercial formula with sodium pyruvate only. Days to healing” value is listed as 15 days. Besides, the “Drug in commercial formula Days to healing” value in data set [2] (drug alone) was found to be 19 days.
In the case of `CC(C)(C#N)c1cc(Cn2cncn2)cc(C(C)(C)C#N)c1` [anastrozole], in data set [1], the “Percentage … with drugs” value came to 24%; the “Percentage of viable cells, Drugs in commercial formula” value was 25%; the “Percentage of viable cells, Drugs in commercial formula sodium pyruvate without SRF” value is recorded as 50%; the “Percentage of viable cells, Drugs in commercial formula with SRF” value is recorded as 86%. Moreover, the “Percentage … with SRF repeat study” value in data set [1] is reported as 94%.
As to `CN(Cc1ccc(C(C)(C)C)cc1)Cc1cccc2ccccc12` [butenafine], in data set [2] (setting [3]), the “Drugs … with SRF erythema” value is reported as 5 and the “Drugs … with sodium pyruvate only erythema” value is reported as 4. Moreover, the “Drugs in commercial formula erythema” value in data set [2] (setting [4]) was 3. In addition, in data set [2], the “Drug … with SRF. Days to healing” value was determined as 16 days and the “Drug in commercial formula with sodium pyruvate only. Days to healing” value is on record as 18 days. In addition, the “Drug in commercial formula Days to healing” value in data set [2] (drug alone) is listed as 21 days.
As for `Cc1cc(C2CCCCC2)n(O)c(=O)c1` [ciclopirox], in data set [2] (setting [3]), the “Drugs … with SRF erythema” value came to 9 and the “Drugs … with sodium pyruvate only erythema” value turned out to be 5. Moreover, in data set [2] (setting [4]), the “Drugs in commercial formula erythema” value is 4. Also, in data set [2], the “Drug … with SRF. Days to healing” value is recorded as 9 days and the “Drug in commercial formula with sodium pyruvate only. Days to healing” value is recorded as 11 days. Also, in data set [2] (drug alone), the “Drug in commercial formula Days to healing” value was 20 days.
On to `Clc1ccc(COC(Cn2ccnc2)c2ccc(Cl)cc2Cl)cc1` (centres unmarked) [econazole], for which, in data set [2] (setting [3]), the “Drugs … with SRF erythema” value was determined as 6 and the “Drugs … with sodium pyruvate only erythema” value came to 6. Moreover, in data set [2] (setting [4]), the “Drugs in commercial formula erythema” value was 6. In addition, in data set [2], the “Drug … with SRF. Days to healing” value was 14 days and the “Drug in commercial formula with sodium pyruvate only. Days to healing” value is 17 days. Further, the “Drug in commercial formula Days to healing” value in data set [2] (drug alone) worked out at 19 days.
For the compound `CC[C@H]1OC(=O)[C@H](C)[C@@H](O[C@H]2C[C@@](C)(OC)[C@@H](O)[C@H](C)O2)[C@H](C)[C@@H](O[C@@H]2O[C@H](C)C[C@H](N(C)C)[C@H]2O)[C@](C)(O)C[C@@H](C)C(=O)[C@H](C)[C@@H](O)[C@]1(C)O` [erythromycin], in data set [2] (setting [3]), the “Drugs … with SRF erythema” value came to 8 and the “Drugs … with sodium pyruvate only erythema” value was 5. Also, the “Drugs in commercial formula erythema” value in data set [2] (setting [4]) was 6. In addition, in data set [2], the “Drug … with SRF. Days to healing” value came out at 9 days and the “Drug in commercial formula with sodium pyruvate only. Days to healing” value stood at 13 days. Moreover, in data set [2] (drug alone), the “Drug in commercial formula Days to healing” value is given as 19 days.
In the case of `O=c1[nH]c(=O)n([C@H]2C[C@H](O)[C@@H](CO)O2)cc1F` [floxuridine], in data set [1], the “Percentage … with drugs” value turned out to be 38%; the “Percentage of viable cells, Drugs in commercial formula” value is 38%; the “Percentage of viable cells, Drugs in commercial formula sodium pyruvate without SRF” value was determined as 58%; the “Percentage of viable cells, Drugs in commercial formula with SRF” value is recorded as 92%. Also, in data set [1], the “Percentage … with SRF repeat study” value worked out at 91%.
For `CC(=O)N1CCN(c2ccc(OCC3COC(Cn4ccnc4)(c4ccc(Cl)cc4Cl)O3)cc2)CC1` (centres unmarked) [ketoconazole], in data set [2] (setting [3]), the “Drugs … with SRF erythema” value turned out to be 8 and the “Drugs … with sodium pyruvate only erythema” value came out at 6. Moreover, in data set [2] (setting [4]), the “Drugs in commercial formula erythema” value is 3. Moreover, in data set [2], the “Drug … with SRF. Days to healing” value amounted to 14 days and the “Drug in commercial formula with sodium pyruvate only. Days to healing” value was determined as 20 days. The “Drug in commercial formula Days to healing” value in data set [2] (drug alone) is on record as 23 days.
Take `NCc1ccc(S(N)(=O)=O)cc1` [mafenide]: in data set [2] (setting [3]), the “Drugs … with SRF erythema” value is listed as 7 and the “Drugs … with sodium pyruvate only erythema” value amounted to 8. Also, the “Drugs in commercial formula erythema” value in data set [2] (setting [4]) is 8. For the same compound, in data set [2], the “Drug … with SRF. Days to healing” value came out at 12 days and the “Drug in commercial formula with sodium pyruvate only. Days to healing” value is recorded as 14 days. Further, the “Drug in commercial formula Days to healing” value in data set [2] (drug alone) stood at 18 days.
Consider `CN(Cc1cnc2nc(N)nc(N)c2n1)c1ccc(C(=O)N[C@@H](CCC(=O)O)C(=O)O)cc1` [methotrexate], for which, in data set [1], the “Percentage of viable cells, Drugs in commercial formula” value stood at 43%; the “Percentage of viable cells, Drugs in commercial formula sodium pyruvate without SRF” value came to 68%; the “Percentage of viable cells, Drugs in commercial formula with SRF” value turned out to be 94%. Besides, the “Percentage … with drugs” value in data set [1] (drug) is given as 42%. The “Percentage … with SRF repeat study” value in data set [1] (repeat study) came to 98%.
In the case of `CN(C/C=C/c1ccccc1)Cc1cccc2ccccc12` [naftifine], in data set [2] (setting [3]), the “Drugs … with SRF erythema” value is 7 and the “Drugs … with sodium pyruvate only erythema” value is on record as 6. The “Drugs in commercial formula erythema” value in data set [2] (setting [4]) is 3. In addition, in data set [2], the “Drug … with SRF. Days to healing” value is 13 days and the “Drug in commercial formula with sodium pyruvate only. Days to healing” value came to 14 days. The “Drug in commercial formula Days to healing” value in data set [2] (drug alone) is listed as 20 days.
With `C[C@@H]1[C@H](O)[C@@H](C)/C=C/C=C/CC/C=C/C=C/C=C/C=C/C(O[C@H]2O[C@H](C)[C@@H](O)[C@H](N)[C@@H]2O)CC2O[C@](O)(CC(O)C(O)CCC(O)CC(O)CC(O)CC(=O)O[C@H]1C)CC(O)C2C(=O)O` (some centres unmarked) [nystatin], in data set [2] (setting [3]), the “Drugs … with SRF erythema” value was 8 and the “Drugs … with sodium pyruvate only erythema” value was 6. Also, the “Drugs in commercial formula erythema” value in data set [2] (setting [4]) was 2. Further, in data set [2], the “Drug … with SRF. Days to healing” value stood at 12 days and the “Drug in commercial formula with sodium pyruvate only. Days to healing” value is reported as 14 days. Moreover, the “Drug in commercial formula Days to healing” value in data set [2] (drug alone) was found to be 17 days.
For the compound `Clc1ccc(CO/N=C(\Cn2ccnc2)c2ccc(Cl)cc2Cl)c(Cl)c1` [oxiconazole], in data set [2] (setting [3]), the “Drugs … with SRF erythema” value is given as 9 and the “Drugs … with sodium pyruvate only erythema” value worked out at 7. The “Drugs in commercial formula erythema” value in data set [2] (setting [4]) is on record as 6. Also, in data set [2], the “Drug … with SRF. Days to healing” value was determined as 11 days and the “Drug in commercial formula with sodium pyruvate only. Days to healing” value was found to be 14 days. Further, the “Drug in commercial formula Days to healing” value in data set [2] (drug alone) is given as 18 days.
Regarding `Clc1ccc(CSC(Cn2ccnc2)c2ccc(Cl)cc2Cl)cc1` (centres unmarked) [sulconazole], in data set [2] (setting [3]), the “Drugs … with SRF erythema” value amounted to 8 and the “Drugs … with sodium pyruvate only erythema” value stood at 6. In addition, the “Drugs in commercial formula erythema” value in data set [2] (setting [4]) is 4. Further, in data set [2], the “Drug … with SRF. Days to healing” value was 11 days and the “Drug in commercial formula with sodium pyruvate only. Days to healing” value came to 15 days. In addition, the “Drug in commercial formula Days to healing” value in data set [2] (drug alone) was found to be 20 days.
Take `Cc1cccc(N(C)C(=S)Oc2ccc3ccccc3c2)c1` [tolnaftate]: in data set [2] (setting [3]), the “Drugs … with SRF erythema” value is 7 and the “Drugs … with sodium pyruvate only erythema” value was determined as 7. Moreover, in data set [2] (setting [4]), the “Drugs in commercial formula erythema” value is given as 7. In addition, in data set [2], the “Drug … with SRF. Days to healing” value is 10 days and the “Drug in commercial formula with sodium pyruvate only. Days to healing” value is given as 13 days. For the same compound, the “Drug in commercial formula Days to healing” value in data set [2] (drug alone) was 21 days.
On to `CC(C)[C@H](N)C(=O)OCCOCn1cnc2c(=O)[nH]c(N)nc21` [valaciclovir], for which, in data set [2] (setting [3]), the “Drugs … with SRF erythema” value was determined as 8 and the “Drugs … with sodium pyruvate only erythema” value was found to be 8. Besides, in data set [2] (setting [4]), the “Drugs in commercial formula erythema” value was 8. In data set [2], the “Drug … with SRF. Days to healing” value was 14 days and the “Drug in commercial formula with sodium pyruvate only. Days to healing” value came to 17 days. Also, in data set [2] (drug alone), the “Drug in commercial formula Days to healing” value amounted to 18 days.
Consider microazole, for which, in data set [2], the “Drug … with SRF. Days to healing” value is reported as 11 days and the “Drug in commercial formula with sodium pyruvate only. Days to healing” value is reported as 12 days. In addition, the “Drug in commercial formula Days to healing” value in data set [2] (drug alone) is reported as 19 days. In data set [2] (in vivo), the “Drugs in commercial formula erythema” value was 5, the “Drugs … with SRF erythema” value was found to be 7 and the “Drugs … with sodium pyruvate only erythema” value worked out at 6.
